Reference: patent US20210276960A1, “INHIBITORS OF TISSUE TRANSGLUTAMINASE 2 (TG2) AND USES THEREOF” (Northwestern University, priority 2020, published 2021)

Key:
OVCAR5 cells = test: Sphere forming assay after priming, with paclitaxel; assay type: cell-based, human; conditions: priming with 1 μM, with 5 nM PTX
Experimental: After 72 h priming with either 1 μM MT-4, TG53 or vehicle (DMSO), 150 OVCAR5 cells were seeded in 60 mm dishes and treated or not with paclitaxel (PTX, Sigma). Colonies were allowed to form over 10 days, fixed in 4% PFA and stained with 0.4% crystal violet (MP Biomedicals). Colonies were counted, and analysis was performed using the ImageJ software ([…]).Spheroid cultures were carried out as previously described(Condello et al., 2015). Briefly, OC cells were resuspended in Mammocult complete medium (StemCell Technologies) supplemented with Mammocult Proliferation Supplements, heparin and hydrocortisone (StemCell Technologies) and seeded at a concentration of 10,000 cells/well in 96-well ultra-low attachment plates (Corning, Corning, N.Y., USA). After treatment with DMSO (control) or TG53 (1 μM) for 7 days, spheroids were counted and quantified by the CCK-8 assay. All assays were performed in four replicates and were repeated. For priming before PTX treatment, cells were manipulated as described for CFU assay and then seeded in 6-well low-attachment plate (Corning, #3473) at 7000 cells/mL/well and allowed to form spheroids in complete Mammocult media. Spheres were counted after ten days from 4 replicate wells. Two independent experiments were performed.

TG2 = molecular target: T1, TG2 (Cavia cutleri, UniProt P08587); test: Isothermal titration calorimetry (ITC); assay type: binding
T1 construct: purchased Sigma T5398
T1 sequence (P08587 whole entry): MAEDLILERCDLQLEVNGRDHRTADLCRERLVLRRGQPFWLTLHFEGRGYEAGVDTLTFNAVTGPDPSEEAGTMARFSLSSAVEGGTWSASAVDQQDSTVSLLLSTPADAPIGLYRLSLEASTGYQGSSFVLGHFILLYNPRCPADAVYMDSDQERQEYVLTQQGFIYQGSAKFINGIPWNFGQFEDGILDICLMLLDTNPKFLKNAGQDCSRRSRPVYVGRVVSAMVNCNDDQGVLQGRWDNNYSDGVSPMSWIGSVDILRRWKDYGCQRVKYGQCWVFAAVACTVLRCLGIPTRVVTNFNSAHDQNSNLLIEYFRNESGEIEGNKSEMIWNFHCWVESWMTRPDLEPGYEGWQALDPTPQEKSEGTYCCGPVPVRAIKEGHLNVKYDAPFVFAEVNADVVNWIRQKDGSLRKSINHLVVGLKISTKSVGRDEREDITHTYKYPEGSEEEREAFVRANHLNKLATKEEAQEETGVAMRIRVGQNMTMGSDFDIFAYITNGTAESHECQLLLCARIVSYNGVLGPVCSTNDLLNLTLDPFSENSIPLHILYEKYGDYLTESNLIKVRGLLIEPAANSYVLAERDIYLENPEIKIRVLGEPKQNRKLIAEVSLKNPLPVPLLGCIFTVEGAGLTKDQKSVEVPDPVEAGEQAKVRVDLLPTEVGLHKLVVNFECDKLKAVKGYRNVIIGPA
Experimental: The 45 kDa fibronectin fragment (FN45) corresponding to the TG2 binding region (Sigma, # F0162) was biotinylated using Biotin (Type A) Fast Conjugation Kit (Abcam, # ab201795). Biotinylated FN45 (10 μg/mL in PBS) was captured on pre-hydrated streptavidin-coated sensors (Pall Forte Bio SAX 18-5117). At each TG2 concentration, the binding kinetics were determined by following this sequence run: baseline (PBS for 30 s), association step (varying concentrations of TG2 in PBS for 120 s), and dissociation step (PBS for 120 s). A new FN45 biosensor was prepared for each run. To analyze the effect of the inhibitor MT4 on the interaction between TG2 and FN, a solution of 20 μg/mL of bio-FN45 was used for capturing FN45 on the streptavidin-coated sensors and the association step was 90 s. For each sensor, the capturing step was measured in real-time in order to assess the stability of the signal and the reproducibility between sensors. The saturation level Rmax was 0.6 (+0.08) for all sensors and no dissociation of the biotinylated FN45 was observed over 60 minutes. […] For the experiments with (TG2+MT4), controls were performed at each MT4 concentration and Rmax values were corrected for non-specific binding and any effects of DMSO on the TG2-FN45 interaction (these effects were below 8%). All BLI experiments were performed at 22° C. […]

[1] = tested on: OVCAR5 cells adhesion to FN; test: Solid phase adhesion assay to FN, OVCAR5; assay type: cell-based, human; design: inhibition of adhesion to FN relative to TG53: dose or concentration left out as unconfirmed
Experimental: Cells labeled with calcein AM (Life Technologies, #L3224) were seeded at a density of 4×10^4 cells in 96-well plates pre-coated with FN (5 μg/mL, Sigma, #F1141), and blocked using 1% BSA (Sigma, #A9647) in PBS in the presence of selected compounds diluted at the specified concentrations, in serum free media. After 45 minutes, unattached cells were washed using PBS containing 1 mM MgCl2(Sigma, #M8266) and adherent cells were quantified in a SpectraMaxGeminiXS fluorescence plate reader (Molecular Devices, Palo Alto, Calif.) at 530 nm wavelength. Experiments were performed inquadruplicate and repeated at least twice.

purified TG2 = molecular target: T2, purified TG2 (UniProt P08587); conditions: not shown, see ref 11; cited from earlier work
T2 construct: purchased Sigma T5398
T2 sequence (P08587 whole entry): as above

OC cells = conditions: 10 μM; not shown, see ref 11; cited from earlier work
[2] = Pharmacokinetic assessment; assay type: in vivo, mice; conditions: for AUC0-∞ / Cl/F / cmax / t1/2 / tmax: 17.46 mg/Kg
Excerpt: Experiment 2: Pharmacokinetic (PK) assessment. PK studies using the highest safe dose will be conducted on lead compounds that were functionally validated and for which a single dose NOAEL could be established (Aim 3A). These will be carried out by the Sanford Burnham Pharmacology Core (see attached LOS). While ip dosing may not be the preferred route of administration for an eventual cancer drug, these studies using ip dosing will give us data on many PK parameters, including bioavailability, which will be useful in prioritizing and triaging optimized compounds for testing using other routes, e.g., oral. PK parameters will be determined including Cmax (maximum plasma concentration), Tmax (time point of maximum concentration), VdSS (volume of distribution at steady-state), ClE (elimination clearance), AUC (area under the curve) t, (elimination half-life), and oral bioavailability (% F) will be obtained (with the inclusion of an i.v. dosed cohort). […] Our goal will be to identify a compound that has a plasma AUC >5× its cell viability EC50, a t1-2>2 hrs, and low-to-moderate clearance. […] Toxicology and pathology measures will be performed only after anti-tumor activity of lead SMIs will be determined, if compounds are found worthy of detailed study (Expt #3). This approach will maximize use of animals and resources. In brief, peripheral blood counts will be obtained; selected organs and tissues (lung, heart, liver, kidney, colon, bone marrow) will be harvested. Bone marrow cellularity and colony formation assay will be determined.

In the case of `Cc1cc(N(C)C)nc(Nc2ccc(NC(=O)Cc3ccccc3)cc2)n1` [MT-4], the “cell proliferation as spheres” value (OVCAR5 cells) is reported as “more potently than PTX alone or PTX and TG53”, the Kd (TG2) is reported as 5.1 µM and the “change in enthalpy, ΔH” value (TG2; 160 μM MT4 titrated into 10 μM TG2, 25° C.) is reported as -20.5 kcal/mol. For the same molecule, the “inhibition of adhesion to FN relative to TG53” value [1] was “more active than TG53” and the “cell adhesion to FN, dose dependence” value ([1]; 2 μM-25 μM) was “dose-dependent inhibitory effect”.
For `COc1ccc(Cl)cc1C(=O)Nc1ccc(Nc2nc(C)cc(N(C)C)n2)cc1` [TG53], the TG2 enzymatic activity (purified TG2) is given as “did not inhibit”, the “wound closure, cell migration rate, and invasion through matrigel coated trans-well plates” value (OC cells) is given as “decreased” and the “AUC0-∞” value ([2]; IV) is given as 2913 ng·h/mL. The Cl/F ([2]; IV) was 0.12 L/h, the cmax ([2]; IV) was 4045 ng/mL and the t1/2 ([2]; IV) was 3.4 h. For the same molecule, the tmax ([2]; IV) was 0 h, the “AUC0-∞” value ([2]; i.p.) was 1212 ng·h/mL and the Cl/F ([2]; i.p.) was 0.29 L/h. For the same molecule, the cmax ([2]; i.p.) was 1313 ng/mL, the t1/2 ([2]; i.p.) was 19.5 h and the tmax ([2]; i.p.) was 0.5 h. For the same molecule, the t/2 ([2]; ip administration) was 19.5 h and the t/2 ([2]; iv administration) was 3.4 h.
